One assay relates to MC3T3-E1 cells. Nature of the assay: cAMP RIA in intact MC3T3-E1 cells. As to conditions: 30 min, room temperature, IBMX; for cAMP MC3T3-E1 cells EC50 (Log M): 6 experiments. The assay is classed as cell-based, mouse. In short, it runs like this: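 Intact mouse pre-osteoblastic MC3T3-E1 cells were stimulated with polypeptide. cAMP in HCl lysates was measured by radioimmunoassay. Values are means of six duplicate experiments with fitted curves.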

The target of the next assay is T1, human PTHR1 (R0) (Homo sapiens, UniProt Q03431).
T1 construct: expressed in transfected cells; host or cells: COS-7 cells (membranes)
T1 sequence (Q03431 27-593): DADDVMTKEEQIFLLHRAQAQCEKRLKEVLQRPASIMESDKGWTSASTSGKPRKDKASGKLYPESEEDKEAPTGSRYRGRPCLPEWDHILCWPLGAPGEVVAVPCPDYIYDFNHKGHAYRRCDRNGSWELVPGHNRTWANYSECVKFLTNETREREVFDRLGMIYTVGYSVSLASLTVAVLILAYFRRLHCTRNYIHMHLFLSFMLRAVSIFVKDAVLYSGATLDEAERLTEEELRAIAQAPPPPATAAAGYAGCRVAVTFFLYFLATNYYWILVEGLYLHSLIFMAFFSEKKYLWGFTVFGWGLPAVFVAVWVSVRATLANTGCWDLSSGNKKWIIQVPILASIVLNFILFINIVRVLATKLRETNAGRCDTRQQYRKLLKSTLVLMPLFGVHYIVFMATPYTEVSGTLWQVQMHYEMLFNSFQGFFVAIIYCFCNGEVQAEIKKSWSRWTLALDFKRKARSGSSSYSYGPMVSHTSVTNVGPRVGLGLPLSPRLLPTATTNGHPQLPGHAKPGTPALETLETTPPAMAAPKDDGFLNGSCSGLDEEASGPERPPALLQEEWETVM
Nature of the assay: Competition binding, R0 conformation of human PTHR1 (COS-7 membranes, 125I-PTH(1-34) tracer, GTPγS). As to conditions: for R0 binding at human PTH receptor as compared to PTH(1-34): FIG. 5A. The method, then:
(§1) Briefly, the R^0 form of the receptor can be favored by addition of the non-hydrolyzable nucleotide analog GTPγS. The RG form can be favored, for example, by co-transfection of cells with a negative dominant Gαs subunit. […] Data are means of four experiments, each performed in duplicate. Curves were fit to the data using Graph-Pad Prism 4.0.
Here, competition binding assays for the R^0 and RG PTHR1 conformation were performed in membranes prepared from transfected COS-7 cells, as described by Dean et al., Mol Endocrinol 22:156-66, 2008. Data are means of three experiments, each performed in duplicate. Curves were fit to the data using Graph-Pad Prism 4.0.

Assay [1] is described as follows: Blood Ca++ responses in mice. The assay is classed as in vivo, mice (C57 BL/6). As to conditions: 5 nmol/kg s.c., 4, 6, 8 and 24 hours. The method, then:
Blood Ca^++ responses in mice were also assayed. Mice (C57 BL/6) were injected subcutaneously with either vehicle or the indicated ligand to give a final dose of 5 nmol/kg body weight, and blood was withdrawn via the tail at times after injection and assessed for Ca^++ concentration using a Bayer Rapid Lab model 348 blood analyzer. […] A similar experiment using 10 nmol/kg by intravenous injection was also conducted with similar results (FIGS. 8C and 8D).

The next assay deals with T2, rat PTHR1 (R0) (Rattus norvegicus, UniProt P25961).
T2 sequence (P25961 27-591): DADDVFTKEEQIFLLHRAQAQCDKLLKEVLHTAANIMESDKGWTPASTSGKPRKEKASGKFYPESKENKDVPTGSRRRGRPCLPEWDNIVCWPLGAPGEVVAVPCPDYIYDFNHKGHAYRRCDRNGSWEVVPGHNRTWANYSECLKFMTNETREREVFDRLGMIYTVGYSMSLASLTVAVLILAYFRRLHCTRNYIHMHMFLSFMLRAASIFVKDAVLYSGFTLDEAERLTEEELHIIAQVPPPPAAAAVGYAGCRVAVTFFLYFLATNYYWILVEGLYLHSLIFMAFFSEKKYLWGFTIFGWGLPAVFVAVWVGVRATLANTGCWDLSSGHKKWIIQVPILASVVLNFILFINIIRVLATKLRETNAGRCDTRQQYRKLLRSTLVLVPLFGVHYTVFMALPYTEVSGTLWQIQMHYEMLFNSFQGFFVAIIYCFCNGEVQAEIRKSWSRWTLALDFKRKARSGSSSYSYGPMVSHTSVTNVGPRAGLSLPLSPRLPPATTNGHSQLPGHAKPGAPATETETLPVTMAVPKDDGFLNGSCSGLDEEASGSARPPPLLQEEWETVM
As to the kind of experiment: Competition binding, R0 conformation of rat PTHR1. As to conditions: for IC50: R0 conformation, mean of 4 experiments, read-out: Binding rat PTHR1 IC50 (Log M) R0 (converted).
Description: as §1

The nature of assay [2]: Hypercalcemic assay in cynomolgus monkeys (serum and urinary calcium and phosphate). The format is in vivo, cynomolgus monkey. As to conditions: for serum calcium: 0.25 nmol/kg intravenous, FIG. 12A; for serum calcium, subcutaneous two doses: 2.5 or 10 nmol/kg subcutaneous, FIG. 15A. Here is the method: The effects of the SP-PTH (SEQ ID NO:11) and SP-PTH-AAK (SEQ ID NO:4) (“SP-AAK”) on serum and urinary calcium and phosphate levels were tested in cynomolgus monkeys. Briefly, three- or four-year-old, male cynomolgus monkeys (HAMRI Co., Ltd., Ibaraki, Japan) were measured for their body weight. Blood was collected into tubes. Monkeys received intravenous or subcutaneous administration of each polypeptide at a dose of 0.3 ml/kg. Polypeptide concentrations in stock solution were adjusted by dilution with 25 mmol/L phosphate-citrate buffer/100 mmol/L NaCl/0.05% Tween 80 (pH.5.0) (PC-buffer). All polypeptides were allowed to stand on ice immediately before administration. Polypeptides were administered to groups of three monkeys each respectively. At 1, 2, 4, and 8 hours after administration, blood was collected by saphenous vein to monitor the time course of calcium and phosphorus levels (FIG. 11A).
Similar experiments were performed using subcutaneous injection of the polypeptides using two different doses (2.5 nmol/kg or 10 nmol/kg; FIG. 14). […] Reductions in serum inorganic phosphate were also observed (FIGS. 15B and 15C). […] Urine calcium and phosphate data were also collected. Urine was collected in 24-hour intervals prior to injection (T=0) and at times thereafter and assessed for Ca (FIGS. 15E and 15G), Pi (FIGS. 15F and 15H) and creatinine; [Ca] and [PI] are expressed as ratios to [creatinine]. FIGS. 15G and 15H present the change from the pre-injection values. Data are means±s.e.m.; n=3/group.

Ends that are not written are not given here.

For “AVAEIQLMHQRAKWIQDARRRAFLHKLIAEIHTAEI-OH [SP-PTH-AAK, [Ala^1,3,12,18,22,Gln^10,Arg^11,Trp^14,Lys^26]PTH(1-14)/PTHrP(15-36)]”, in the assay on MC3T3-E1 cells, the EC50 (usually the concentration giving half of the maximal effect) turned out to be 6.3 pM, the “cAMP MC3T3-E1 cells Emax (pmole/well)” value worked out at 62.3 ± 13.6 pmole/well and the “cAMP MC3T3-E1 cells EC50 (Log M)” value is recorded as −11.2 ± 0.2 Log M. At human PTHR1 (R0), the “R0 binding at human PTH receptor as compared to PTH(1-34)” value is “enhanced R^0 binding”. Besides, in assay [1], the “blood calcium levels at later time points vs PTH(1-34) or vehicle” value was “increased”. Further, at rat PTHR1 (R0) (FIG. 1A), the “binding to R0 form of rat PTHR1, comparison in words” value was “strongest binding” and the “stronger binding to the R0 form of the rat PTH receptor as compared to PTH(1-34)” value is on record as “greater than two orders of magnitude increase in binding”. In addition, the 50% effective concentration (EC50) at rat PTHR1 (R0) (FIG. 1A, read-out: log EC50, binding to the R0 form of the rat PTH receptor (converted)) is 200 pM. In addition, on rat PTHR1 (R0), the IC50 (in general, the point on the concentration scale where inhibition reaches its midpoint) is 209 pM. In addition, in assay [2], the serum calcium entry is “increased serum calcium” and the “serum calcium, subcutaneous two doses” value is “increases in serum calcium were observed in a dose dependent manner”.
As to “AVAEIQLMHQRAKWIQDLRRRFFLHHLIAEIHTAEI-OH [SP-PTH, [Ala^1,3,12,Gln^10,Arg^11,Trp^14]PTH(1-14)/PTHrP(15-36)]”, in the assay with MC3T3-E1 cells, the EC50 amounted to 44 pM, the “cAMP MC3T3-E1 cells Emax (pmole/well)” value was 60.6 ± 12.4 pmole/well and the “cAMP MC3T3-E1 cells EC50 (Log M)” value is −10.4 ± 0.1 Log M. The “R0 binding at human PTH receptor as compared to PTH(1-34)” value at human PTHR1 (R0) is “enhanced R^0 binding”. Moreover, the IC50 at human PTHR1 (R0) (R0 conformation, mean of 3 experiments, read-out: Binding human PTHR1 IC50 (Log M) R0 (converted)) was 1380 pM. For the same substance, the “blood calcium levels at later time points vs PTH(1-34) or vehicle” value in assay [1] is on record as “increased”. Besides, the IC50 at rat PTHR1 (R0) was 1450 pM. For the same substance, in assay [2], the serum calcium entry is “increased serum calcium” and the “serum calcium, subcutaneous two doses” value is reported as “increases in serum calcium were observed in a dose dependent manner”.

The record behind these values is patent US9492508B2, “Parathyroid hormone analogs and uses thereof” (The General Hospital Corporation, priority 2010, dated 2016).
